According to US4940730A, “Angiogenesis enhancer” (Takeda Chemical Industries, Ltd., priority 1987, dated 1990):
Structures can show the parent of a compound that is named as a salt.

Test system: hen's chlorioallantoic membrane
Assay: CAM (Chorio Allantoic Membrane) assay
Type: in vivo
Conditions: for ED50: amount of drug which gave the numerical value 5 (positive rate) in CAM assay; for Positive rate of CAM assay: average neovascularization score (++=10, +=7, °=3, -=0), 3 days on membrane
Protocol: CAM (Chorio Allantoic Membrane) assay was conducted on various compounds of the present invention. The technique of the CAM assay was that modified somewhat on Auerbach's method [Developmental Biology, 41, 391 (1974)]. More specifically, hen's fertile eggs were incubated for three days at 37° C. (Napco carbon dioxide incubator-6300 was employed, CO2 :0% H2 O saturated). Polypropylene-made discs (6 mm. diameter) were spotted with a chloroform:ethanol (1:4 by volume) solution of each compound so that the concentration may be 0, 0.25, 0.64, 1.6, 4, 10 and 25 ug, respectively. The test materials were air-dried in a clean bench, which were then placed quietly on hen's chlorioallantoic membrane, followed by incubation at 37° C. for further three days. Then, the vascularization state was observed. In the tables, the positive rates were calculated on the following basis. Namely, degrees of neovascularization were determined as ++ for very strong, + for strong, ° for weak and - for negative, and they were numerized as 10, 7, 3 and 0, respectively. The average numerical value in each of the concentrations of the respective samples was made as positive rate. Further, the amount of the drug which gave the numerical value 5 in each sample was shown as ED50 value (ug/disc).

[1] = amount of sample 0.64 μg per disc
[2] = amount of sample 1.6 μg per disc
[3] = amount of sample 10 μg per disc
[4] = amount of sample 25 μg per disc

Compound | ED50 [ug/disc] | Positive rate of CAM assay [1] | Positive rate of CAM assay [2] | Positive rate of CAM assay (amount of sample 4 μg per disc) | Positive rate of CAM assay [3] | Positive rate of CAM assay [4]
CCCCCCCC/C=C\CCCCCCCCCCCCN [1-Amino-13-docosene.HCl] | 0.94 | 3.4 | 7.0 | 8.8 | 10 | > 10
C=CCCCCCCCCCCCCCCCCCCCC [1-Docosene] | 5.46 | 0 | 0 | 2.5 | 10 | 9.3
CCCCCCCCCCCCCCCCCCCCCC[N+](C)(C)C [1-Trimethyammonio docosane bromide] | 4.00 | 0 | 4.5 | 5.0 | 8.0 | –
CCCCCCCC/C=C\CCCCCCCCCCCC(=O)Nc1ccc(Cl)cc1C(=O)O [2-NH2-4-Cl-BzCO2 H, N-erucoyl-2-amino-5-chlorobenzoic acid] | 2.70 | 2.6 | 4.2 | 5.6 | 8.0 | 10
CCCCCCCC/C=C\CCCCCCCCCCCC(=O)N1C(C(=O)O)CSC1c1ccncc1 (stereo not shown) [2-Py-Thia-CO2 H] | 2.67 | 2.8 | 2.6 | 6.8 | 10 | 10
CCCCCCCCC1OC1CCCCCCCCCCCC(N)=O (stereo not shown) [13,14-Epoxyerucamide] | 2.22 | 1.5 | 3.3 | 8.5 | 10 | 10
CCCCCCCCC1OC1CCCCCCCCCCCCO (stereo not shown) [13, 14-Eopxy-docosan-1-ol] | 5.18 | 0 | 0 | 3.3 | 9.3 | 10
CCCCCCCC/C=C\CCCCCCCCCCCCO [13-Docosen-1-ol] | 2.15 | 1.4 | 4.8 | 6.8 | 9.4 | 10
CCCCCCCCCCCCCCCCCCCC(N)=O [Arachidamide] | 11.5 | 0 | 2.8 | 3.4 | 4.6 | 7.4
CCCCCCCCCCCCCCCCCCCC(=O)O [Arachidic acid] | 4.00 | 0 | 4.6 | 4.6 | 7.6 | 8.8
CCCCC/C=C\C/C=C\C/C=C\C/C=C\CCCC(N)=O [Arachidonamide] | 6.13 | 1.3 | 1.6 | 2.9 | 7.4 | 9.6
CCCCC/C=C\C/C=C\C/C=C\C/C=C\CCCC(=O)O [Arachidonic acid] | 3.64 | 2.5 | 3.5 | 5.3 | 7 | 10
CCCCCCCCCCCCCCCCCCCCCC(N)=O [Behenamide] | 2.76 | 0 | 1.8 | 7.6 | 10 | 10
CCCCCCCC/C=C/CCCCCCCCCCCC(N)=O [Brassidamide] | 1.89 | 0 | 2.0 | 7.4 | 9.3 | 10
CCCCCCCC/C=C/CCCCCCCCCCCC(=O)O [Brassidic acid] | 1.82 | 3.5 | 6 | 6 | 9.3 | 10
CCCC(N)=O [Butyramide, reference compound] | – | 0 | 0 | 0 | 0 | 0

Compound | ED50 [ug/disc] | Positive rate of CAM assay [1] | Positive rate of CAM assay [2] | Positive rate of CAM assay (amount of sample 4 μg per disc) | Positive rate of CAM assay [3] | Positive rate of CAM assay [4]
CCCCCCCCCCCCCCCCCCCCCCCCCC(=O)O [Cerotic acid] | 2.75 | 1.8 | 2.5 | 7.8 | 9.3 | 8.5
CC/C=C\C/C=C\C/C=C\C/C=C\C/C=C\C/C=C\CCC(=O)O [Docosahexaenoic acid] | – | 0 | 0 | 0 | 0.6 | 4.8
CCCCCCCCCCCCCCCCCCCCCCO [Docosan-1-ol] | 2.55 | 0 | 1.8 | 8.3 | 10 | 10
CCCCCCCC/C=C/CCCCCCCC(=O)O [Elaidic acid] | – | 0 | 0 | 3 | 4 | 4
CCCCCCCCC(O)C(O)CCCCCCCCCCCC(N)=O (stereo not shown) [Erucamide, diOH, 13,14-dihydroxydocosanamide] | 5.62 | 0 | 2.0 | 3.8 | 7.0 | 9.4
CCCCCCCCC(O)C(O)CCCCCCCCCCCC(=O)O (stereo not shown) [Erucic acid diOH] | 3.45 | 0 | 2.0 | 7.4 | 8.2 | 10
CCCCCCCCCCCCCCCCCCCCCCCC(=O)O [Lignoceric acid] | 4.61 | 1.4 | 2 | 4.6 | 7.6 | 6.2
CCCCC/C=C\C/C=C\CCCCCCCC(=O)O [Linoleic acid] | 7.69 | 0 | 1.8 | 2.5 | 6 | 10
CCCCCCCCCCCCCC(N)=O [Myristamide] | – | 0 | 0 | 1.3 | 2.6 | 3.5
CCCCCCCCCCCCCC(=O)O [Myristic acid] | 25.0 | 0 | 0 | 0.8 | 4 | 5
CCCCCCCC/C=C\CCCCCCCCCCCC(=O)N(CCO)CCO [N, N-di-diethanol] | 2.42 | 1.0 | 2.3 | 8.0 | 10 | 10
CCCCCCCC/C=C\CCCCCCCCCCCC(=O)N(C)C [N,N-dimethyl] | 5.41 | 0 | 1.5 | 3.3 | 8.5 | 9.3
CCCCCCCC/C=C\CCCCCCCCCCCC(=O)NC [N-methyl, N-methyl erucamide] | 2.90 | 0.8 | 2.3 | 7.8 | 10 | 10
CCCCCCCC/C=C\CCCCCCCCCCCCCC(=O)O [Nervonic acid] | 2.75 | 1.8 | 2.5 | 7.8 | 9.3 | 8.5
CCCCCCCC/C=C\CCCCCCCC(N)=O [Oleamide] | 16.7 | 0 | 0.6 | 0 | 7.8 | 6.8
